Publication PMC4057667, “Study on Biopharmaceutics Classification and Oral Bioavailability of a Novel Multikinase Inhibitor NCE for Cancer Therapy” (International Journal of Molecular Sciences, 2014)
Where two headings read alike, the source gives them in different places.

Legend:
[1] = Solubility with sodium dodecyl sulfate (SDS) added; assay type: physicochemical; details: aqueous with cosolvent or surfactant or cyclodextrin
Method: Intrinsic dissolution ratio is defined as the dissolution rate of a pure drug substance under the condition of constant surface area, agitation or stirring speed, pH and ionic strength of the dissolution medium. As a rate characterization, IDR data has a good correlation with in vivo drug dissolution rate. […] Three different SDS concentrations were tested. The solubilities of NCE were 54.46 (0.4% SDS), 131.83 (1% SDS) and 255.91 (2% SDS) μg/mL. The volume of the release medium in this experiment was 900 mL, thus the introduction of 1% SDS into the medium was enough to achieve sink condition.
The concentration of NCE in perfusion buffer containing 0.4% SDS was high enough to conduct the following intestinal permeability study. Additionally, according to preliminary experiments, SDS with concentrations higher than 1% would be toxic to rats.

[2] = pKa determination; assay type: physicochemical; details: read-out: pKa of conjugate acid
[3] = Intrinsic dissolution rate (IDR) measurement; assay type: physicochemical; details: phosphate buffer pH 6.8 with 1% SDS, 37 °C, 75 rpm, initial 4 h
Method: A modified IDR measurement method was carried out. In brief, 50 mg NCE was compressed under an average compression force of 3.0 MPa for 1 min to make a non-disintegrating compact using a 5 mm die and punch. The surface area of the compact was 0.1963 cm^2. Compacts were placed in a molten beeswax-mold in a way that only one side could come in contact with the dissolution medium. Dissolution study was conducted employing USP II dissolution apparatus using 900 mL phosphate buffer (0.1 mol/mL, pH = 6.8) with 1% SDS (w/v) at 37 ± 1 °C. The paddle rotating speed was 75 rpm. Samples were collected every 30 min for a period of 8 h and analyzed by HPLC. Samples were tested in triplicates.
To evaluate the IDR of NCE, the cumulative amount dissolved per surface unit of the compact was plotted against time. The slope of the linear region (R^2 ≥ 0.95) was taken as the intrinsic dissolution rate. IDR was calculated by the following equation as described previously.
(2) IDR=(dw/dt)(1/S)=DCs/h
where IDR is the intrinsic dissolution rate (mg/min/cm^2); dw is the change in drug dissolved (mg); dt is the change in time (min); S is the surface area of the compact (cm^2); D is diffusion coefficient (cm^2/s); Cs is the solubility (mg/cm^3) and h is the stagnant layer thickness (cm).

[4] = Pharmacokinetic study in beagle dogs; assay type: in vivo; details: 30 mg/kg; for AUC(0-t) / Cmax / MRT / Tmax / half-life / bioavailability: beagle, dog, plasma
Method: Six healthy beagle dogs (7.97 ± 0.73 kg) were randomly assigned into two groups. NCE was given to the dogs by intragastrical (i.g.) and intravenous (i.v.) administration at a dosage of 30 mg/kg. Blood was collected from the forelimb vein of the dogs at 0.25, 0.5, 0.75, 1, 2, 3, 4, 6, 8, 10, 12 and 24 h. Plasma samples were obtained by centrifuging blood at 3000 rpm for 10 min and were stored at −20 °C. Before analysis, acetonitrile was added into the plasma and the mixture was vortexed for 5 min to precipitate the protein. Then, the samples were centrifuged for 10 min at a speed of 1.3 × 10^4 rpm. The supernatant was collected and the solvent was removed by pressure blowing concentrator. Then, mobile phase was added to dissolve the residual. The concentrations of NCE in plasma were determined by HPLC.
The pharmacokinetic parameters were calculated using the pharmacokinetics-intelligent analysis module of DAS 2.1.1 software. Total areas under the concentration-time curve (AUC) after i.g. and i.v. administration were determined by extrapolation from time 0−t (AUC0−t), respectively. The oral bioavailability of NCE was estimated using the ratio of AUC values following i.g. and i.v. administration.

[5] = set-up: method as in ref 31 = [31]; 31. Yang Y. Fan C. Zhang J. He X. Yu Y. Fang D. He Y. Song X. Intestinal absorption characteristics and pharmacokinetics of the novel targeted small-molecular NCE in rats Chin. J. New Drugs 2013 21 25; details: rats; cited from earlier work
[6] = tested on: vascular endothelial growth factor receptor 2 (VEGFR2); set-up: method as in PMID 21691074; details: at a concentration of 10 μM; cited from earlier work
[7] = tested on: fibroblast growth factor receptor 2 (FGFR2); set-up: method as in PMID 21691074; details: at a concentration of 10 μM; cited from earlier work
[8] = tested on: platelet-derived growth factor receptor (PDGFR); set-up: method as in PMID 21691074; details: at a concentration of 10 μM; cited from earlier work
[9] = tested on: VEGF-stimulated human umbilical vein endothelial cells (HUVECs); set-up: method as in PMID 21691074; details: in vitro; cited from earlier work

`CNC(=O)c1cc(Oc2ccc(NC(=O)c3cccc(C(F)(F)F)c3)cc2)ccn1.Cc1ccc(S(=O)(=O)O)cc1.O` [NCE, 2-methylcarbamoyl-4-{4-[3-(trifluoromethyl)benzamido]phenoxy} pyridinium 4-methylbenzenesulfonate monohydrate] gave a solubility ([1]; phosphate buffer with 0.4% SDS) of 54.5 µg/mL, a solubility ([1]; phosphate buffer with 1% SDS) of 132 µg/mL and a solubility ([1]; phosphate buffer with 2% SDS) of 256 µg/mL. The pKa [2] was 2.86, the “Intrinsic dissolution rate (IDR)” value [3] was 1 × 10^−4 mg·min^−1·cm^−2 and the “i.v./i.g. AUC0−t ratio” value ([4]; beagle dogs) was 4.19. For the same compound, the “i.v./i.g. Cmax ratio” value ([4]; beagle dogs) was “about 11.10”, the AUC(0-t) ([4]; iv, Beagle 1) was 56200 ng·h/mL and the Cmax ([4]; iv, Beagle 1) was 26000 ng/mL. It also gave an MRT ([4]; iv, Beagle 1) of 1.84 h, a Tmax ([4]; iv, Beagle 1) of 0.23 h and a half-life ([4]; iv, Beagle 1) of 6.39 h. It also gave an AUC(0-t) ([4]; iv, Beagle 2) of 34400 ng·h/mL, a Cmax ([4]; iv, Beagle 2) of 23700 ng/mL and an MRT ([4]; iv, Beagle 2) of 1.68 h. For the same compound, the Tmax ([4]; iv, Beagle 2) was 0.3 h, the half-life ([4]; iv, Beagle 2) was 3.56 h and the AUC(0-t) ([4]; iv, Beagle3) was 25100 ng·h/mL. The Cmax ([4]; iv, Beagle3) was 21600 ng/mL, the MRT ([4]; iv, Beagle3) was 1.35 h and the Tmax ([4]; iv, Beagle3) was 0.22 h. For the same compound, the half-life ([4]; iv, Beagle3) was 9.23 h, the AUC(0-t) ([4]; iv, mean ± SD, n = 3) was 38600 ± 16000 ng·h/mL and the Cmax ([4]; iv, mean ± SD, n = 3) was 23800 ± 2230 ng/mL. The MRT ([4]; iv, mean ± SD, n = 3) was 1.62 ± 0.25 h, the Tmax ([4]; iv, mean ± SD, n = 3) was 0.25 ± 0.04 h and the half-life ([4]; iv, mean ± SD, n = 3) was 6.39 ± 2.83 h. It also gave an AUC(0-t) ([4]; po, i.g., Beagle 4) of 6860 ng·h/mL, a Cmax ([4]; po, i.g., Beagle 4) of 3500 ng/mL and an MRT ([4]; po, i.g., Beagle 4) of 10.8 h. It also gave a Tmax ([4]; po, i.g., Beagle 4) of 2 h, a half-life ([4]; po, i.g., Beagle 4) of 12.3 h and a bioavailability ([4]; po, i.g., Beagle 4, read-out: F, absolute bioavailability) of 12.2%. For the same compound, the AUC(0-t) ([4]; po, i.g., Beagle 5) was 13600 ng·h/mL, the Cmax ([4]; po, i.g., Beagle 5) was 860 ng/mL and the MRT ([4]; po, i.g., Beagle 5) was 10.6 h. For the same compound, the Tmax ([4]; po, i.g., Beagle 5) was 1.73 h, the half-life ([4]; po, i.g., Beagle 5) was 17.3 h and the bioavailability ([4]; po, i.g., Beagle 5, read-out: F, absolute bioavailability) was 39.6%. For the same compound, the AUC(0-t) ([4]; po, i.g., Beagle 6) was 7160 ng·h/mL, the Cmax ([4]; po, i.g., Beagle 6) was 2060 ng/mL and the MRT ([4]; po, i.g., Beagle 6) was 11.2 h. The Tmax ([4]; po, i.g., Beagle 6) was 2 h, the half-life ([4]; po, i.g., Beagle 6) was 14.9 h and the bioavailability ([4]; po, i.g., Beagle 6, read-out: F, absolute bioavailability) was 28.5%. It also gave an AUC(0-t) ([4]; po, i.g., mean ± SD, n = 3) of 9210 ± 3820 ng·h/mL, a Cmax ([4]; po, i.g., mean ± SD, n = 3) of 2140 ± 1320 ng/mL and an MRT ([4]; po, i.g., mean ± SD, n = 3) of 10.8 ± 0.31 h. It also gave a Tmax ([4]; po, i.g., mean ± SD, n = 3) of 1.91 ± 0.15 h, a half-life ([4]; po, i.g., mean ± SD, n = 3) of 14.8 ± 2.53 h and a bioavailability ([4]; po, i.g., mean ± SD, n = 3, read-out: F, absolute bioavailability) of 26.8 ± 13.8%. The absolute oral bioavailability [5] was 44.18%, the inhibition rate [6] was 97% and the inhibition rate [7] was 65%. The inhibition rate [8] was 55% and the “inhibition of VEGF-stimulated HUVECs proliferation” value [9] was “more selective inhibition”.
